Experiments:
hERG potassium channel = hERG potassium channel (Homo sapiens (Human), UniProt Q12809); test: hERG inhibition, automated planar patch-clamp in hERG-expressing CHO cells; conditions: read-out: Test Example 5 hERG IC50; whole-cell patch clamp, room temperature
BACE1 [1] = molecular target: T1, BACE1 (Homo sapiens (Human), UniProt P56817); test: Measurement of BACE1 inhibition by time resolved fluorescence resonance energy transfer (TR-FRET); type: biochemical; conditions: Eu-CEVNLDAEFK-QSY 7 substrate, read-out: Test Example 2 IC50
Target sequence in this assay (P56817 75-416): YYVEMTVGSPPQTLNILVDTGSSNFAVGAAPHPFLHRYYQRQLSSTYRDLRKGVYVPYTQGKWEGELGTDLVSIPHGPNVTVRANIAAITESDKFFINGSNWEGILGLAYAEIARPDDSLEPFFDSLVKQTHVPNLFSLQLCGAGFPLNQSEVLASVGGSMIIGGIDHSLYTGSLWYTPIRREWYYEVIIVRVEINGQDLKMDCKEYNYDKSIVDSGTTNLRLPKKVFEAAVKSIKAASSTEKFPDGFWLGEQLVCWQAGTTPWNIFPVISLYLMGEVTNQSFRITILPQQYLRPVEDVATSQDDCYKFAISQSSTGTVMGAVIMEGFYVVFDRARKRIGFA
Procedure: If the sample contains BACE1 activity, the Eu chelate and the quencher will be separated as the substrate is cleaved. The Eu-signal increases and it can be measured by time-resolved fluorometry, EnVision™, 30 minutes after the substrate (final concentration 300 nM) was added.

BACE1 [2] = molecular target: T1, BACE1; test: Measurement of BACE1 inhibition by fluorescence resonance energy transfer (FRET), MCA substrate; conditions: FRET; for IC50: read-out: Test Example 1 IC50, MCA-SEVNLDAEFK(DNP)-NH2 substrate, pH 4.4
Target sequence in this assay (P56817 75-416): as above

BACE1 [3] = molecular target: T1, BACE1; test: Measurement of Aβ production inhibition in cell (SK-N-BE(2) neuroblastoma cells, Aβ40 ELISA); conditions: Test Example 3 IC50, Aβ40 production, SK-N-BE(2) cells, 6 hours
Target sequence in this assay (P56817 46-501): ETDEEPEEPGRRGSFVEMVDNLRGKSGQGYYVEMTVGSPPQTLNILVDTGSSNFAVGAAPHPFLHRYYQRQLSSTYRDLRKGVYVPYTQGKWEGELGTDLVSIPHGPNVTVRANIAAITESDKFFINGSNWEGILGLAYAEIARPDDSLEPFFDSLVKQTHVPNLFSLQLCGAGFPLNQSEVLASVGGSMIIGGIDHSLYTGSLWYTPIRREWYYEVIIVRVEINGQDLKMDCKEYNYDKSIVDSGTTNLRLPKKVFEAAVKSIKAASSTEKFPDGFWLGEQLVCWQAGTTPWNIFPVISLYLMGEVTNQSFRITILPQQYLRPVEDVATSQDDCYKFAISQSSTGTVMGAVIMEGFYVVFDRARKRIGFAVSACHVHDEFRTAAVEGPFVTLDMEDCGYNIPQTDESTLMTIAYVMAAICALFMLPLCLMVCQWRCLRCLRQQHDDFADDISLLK
Procedure: The potency of compounds against BACE1 activity was determined in a cellular assay of Aβ production. […] Test compounds were dissolved in dimethyl sulfoxide and diluted with dimethyl sulfoxide and put into RPMI1640/5% FBS/penicillin-streptomycin media (final dimethyl sulfoxide concentration is 0.5%). […] CellTiter-Glo Substrate was dissolved into CellTiter-Glo Buffer and added to the plates in 95 μL/well. After shaking the plates for 2 minutes, the whole sample was transferred into a white 96-well plate and luminescence was measured for ATP quantification as the cell viability. Aβ concentration measured by ELISA was normalized by the viability of the corresponding cells.

Aβ42 = test: Brain Aβ reduction in rats (Aβ42 ELISA); type: in vivo, Sprague-Dawley rats; conditions: rat, oral
Procedure: Effects on brain Aβ reduction in rats were determined with reference to the method described in the WO2012/054510. […] Concretely, the test was conducted with the method as below.
Test compounds were prepared in a vehicle of 35% HPβCD in H2O. The test compound was formulated the same day as oral dosing. Doses (see [Table. 1]) were based on the free base equivalent. Sonication was used where required to facilitate the formulation.
Male Sprague-Dawley rats (150-300 grams) were obtained from Charles River Japan (Atsugi, Japan) and were given approximately 4 days of acclimation. Food and water was made available ad libitum throughout the study. Animals were visually inspected for health before being included into the study group, and were randomly assigned to the treatment and control groups to achieve similar group mean body weights. The dosing solution (dose volume 5 mL/kg) was administered directly into the stomach using a rodent gavage needle. Control animals received oral administration of equivalent volume of the vehicle.
At a time post-dose (e.g., 3 hours; see [Table. 1]), animals were euthanized with isoflurane. […] Plasma was separated using centrifugation at 15,000 rpm (20,400×g) for 5 minutes at 4° C. and subsequently stored at −80° C. After blood sampling, CSF (cerebrospinal fluid) was carefully withdrawn from the cisterna magna using a 29 gauge needle after a quick dissection to expose the atlantooccipital membrane. The CSF samples were centrifuged at 15,000 rpm (20,400×g) for 5 minutes to confirm free of blood contamination and stored at −80° C. Immediately after decapitation, the hippocampus were isolated on ice, and quickly frozen in liquid nitrogen and stored at −80° C.
Fragments of the hippocampus were weighed while frozen. A 10-fold volume (w:v) of TBS (Tris-buffered saline) supplemented with a Complete Mini protease inhibitor tablet (catalog number: 11 836 153 001, Roche Diagnostics, In, USA) was added. The hippocampus were homogenized using sonication on ice in microcentrifuge tube. Resulting homogenates were centrifuged at 100,000×g for 1 hour in a refrigerated centrifuge at 4° C. Supernatants were collected as soluble fraction.
Each concentration of Aβ42 was divided by the mean concentration of Aβ42 of vehicle-treated group, and these ratios were converted to percentages.

hERG potassium channel, sequence (Q12809 whole entry): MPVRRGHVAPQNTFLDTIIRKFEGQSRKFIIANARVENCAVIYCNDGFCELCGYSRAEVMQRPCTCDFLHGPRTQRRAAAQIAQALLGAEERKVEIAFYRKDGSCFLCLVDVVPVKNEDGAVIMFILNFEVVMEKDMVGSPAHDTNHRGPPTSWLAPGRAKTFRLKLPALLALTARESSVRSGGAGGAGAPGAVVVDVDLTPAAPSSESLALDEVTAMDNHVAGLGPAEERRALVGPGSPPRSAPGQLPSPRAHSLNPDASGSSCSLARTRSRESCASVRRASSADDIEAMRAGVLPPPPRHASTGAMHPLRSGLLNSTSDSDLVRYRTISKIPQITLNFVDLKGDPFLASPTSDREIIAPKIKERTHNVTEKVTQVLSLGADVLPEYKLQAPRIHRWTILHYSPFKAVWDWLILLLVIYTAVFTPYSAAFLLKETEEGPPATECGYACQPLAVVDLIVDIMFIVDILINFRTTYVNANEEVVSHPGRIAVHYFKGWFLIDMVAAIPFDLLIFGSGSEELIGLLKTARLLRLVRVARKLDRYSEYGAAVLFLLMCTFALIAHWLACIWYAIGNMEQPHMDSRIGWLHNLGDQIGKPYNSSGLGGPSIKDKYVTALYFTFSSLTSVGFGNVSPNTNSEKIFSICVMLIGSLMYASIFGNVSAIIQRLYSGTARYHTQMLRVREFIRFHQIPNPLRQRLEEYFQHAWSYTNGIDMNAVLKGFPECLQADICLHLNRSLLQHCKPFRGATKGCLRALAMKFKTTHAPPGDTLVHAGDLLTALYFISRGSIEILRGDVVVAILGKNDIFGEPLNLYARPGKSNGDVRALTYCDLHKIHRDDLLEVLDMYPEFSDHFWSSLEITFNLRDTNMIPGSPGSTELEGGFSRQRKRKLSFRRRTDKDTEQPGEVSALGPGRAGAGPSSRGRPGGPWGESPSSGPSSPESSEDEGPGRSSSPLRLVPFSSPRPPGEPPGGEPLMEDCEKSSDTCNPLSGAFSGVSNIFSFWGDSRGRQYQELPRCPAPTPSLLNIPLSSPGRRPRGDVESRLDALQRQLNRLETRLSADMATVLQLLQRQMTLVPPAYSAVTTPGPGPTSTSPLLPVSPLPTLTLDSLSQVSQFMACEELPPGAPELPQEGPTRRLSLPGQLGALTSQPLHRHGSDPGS

SMILES	IC50 (BACE1 [1])	IC50 (BACE1 [2])	IC50 (BACE1 [3])	further results
Cn1cc2cc(-c3ccc4c(c3)C3(COC(N)=N3)C3(CC3)CO4)ccc2n1 (stereo not drawn) [RP 213]	39600 nM	–	–	IC50 (hERG potassium channel): > 10000 nM
CNC(=O)c1cc(F)cc(-c2ccc3c(c2)C2(COC(N)=N2)C2(COC2)C(C)(C)O3)c1 (stereo not drawn) [RP 171]	3040 nM	2240 nM	3100 nM	–
COC/C=C/c1ccc2c(c1)C1(COC(N)=N1)C1(COC1)C(C)(C)O2 (stereo not drawn) [RP 181]	2130 nM	2590 nM	820 nM	–
CC1(C)Oc2ccc(-c3cc(F)ccn3)cc2C2(COC(N)=N2)C12COC2 (stereo not drawn) [RP 149]	1590 nM	–	1100 nM	–
CC1(C)Oc2ccc(NC(=O)c3ccc(Cl)cn3)cc2[C@@]2(COC(N)=N2)C12COC2 [Example 218, N-[(4S)-2-amino-2′,2′-dimethyldispiro[1,3-oxazole-4,4′-chromene-3′,3″-oxetan]-6′-yl]-5-chloropyridine-2-carboxamide]	–	–	–	Test Example 4 Aβ42 reduction (%) (Aβ42; 3 mg/kg, 2.5 hours): 24%; Test Example 4 Aβ42 reduction (%) (Aβ42; 10 mg/kg, 2.5 hours): 31%
CC1(C)Oc2ccc(NC(=O)c3cnc(C(F)F)cn3)cc2[C@@]2(COC(N)=N2)C12CC2 [Example 224, N-[(4′R)-2″-amino-2′,2′-dimethyldispiro[cyclopropane-1,3′-chromene-4′,4″-[1,3]oxazol]-6′-yl]-5-(difluoromethyl)pyrazine-2-carboxamide]	–	–	–	IC50 (hERG potassium channel): 15100 nM; Test Example 4 Aβ42 reduction (%) (Aβ42; 1 mg/kg, 3 hours): 21%; Test Example 4 Aβ42 reduction (%) (Aβ42; 3 mg/kg, 3 hours): 35%
CC1(C)Oc2ccc(-c3cc(Cl)cnc3F)cc2C2(COC(N)=N2)C12COC2 (stereo not drawn) [RP 154]	313 nM	–	32 nM	IC50 (hERG potassium channel): > 1000 nM
CC1(C)Oc2ccc(-c3cc(C#N)ccc3F)cc2C2(COC(N)=N2)C12COC2 (stereo not drawn) [RP 170]	588 nM	1000 nM	400 nM	–
COc1ncc(Cl)cc1-c1ccc2c(c1)C1(COC(N)=N1)C1(COC1)C(C)(C)O2 (stereo not drawn) [RP 155]	786 nM	–	630 nM	–
CC1(C)Oc2ccc(-c3cncc(Cl)c3)cc2C2(COC(N)=N2)C12COC2 (stereo not drawn) [RP 173]	239 nM	401 nM	73 nM	–
CC1(C)Oc2ccc(-c3cccc4[nH]ncc34)cc2C2(COC(N)=N2)C12COC2 (stereo not drawn) [RP 176]	994 nM	–	850 nM	–
CC1(C)Oc2ccc(-c3cnc4[nH]ccc4c3)cc2C2(COC(N)=N2)C12COC2 (stereo not drawn) [RP 168]	760 nM	–	310 nM	–
COc1cnc(C(=O)Nc2ccc3c(c2)[C@@]2(COC(N)=N2)C2(CC2)C(C)(C)O3)cn1 [Example 223, N-[(4′R)-2″-amino-2′,2′-dimethyldispiro[cyclopropane-1,3′-chromene-4′,4″-[1,3]oxazol]-6′-yl]-5-methoxypyrazine-2-carboxamide]	–	–	–	Test Example 4 Aβ42 reduction (%) (Aβ42; 1 mg/kg, 3 hours): 19%; Test Example 4 Aβ42 reduction (%) (Aβ42; 3 mg/kg, 3 hours): 34%
Cc1cn2cc(-c3ccc4c(c3)C3(COC(N)=N3)C3(COC3)C3(CCC3)O4)ccc2n1 (stereo not drawn) [RP 67]	96500 nM	–	–	IC50 (hERG potassium channel): > 10000 nM
CC#Cc1cc(-c2ccc3c(c2)C2(COC(N)=N2)C2(COC2)CO3)ccn1 (stereo not drawn) [RP 20]	2710 nM	–	580 nM	–
COc1ccnc(-c2ccc3c(c2)C2(COC(N)=N2)C2(COC2)C(C)(C)O3)c1 (stereo not drawn) [RP 65, 6′-(4-methoxypyridin-2-yl)-2′,2′-dimethyldispiro[1,3-oxazole-4,4′-chromene-3′,3″-oxetan]-2-amine]	388 nM	–	49 nM	–
CC1(C)Oc2ccc(-c3cccc4cc[nH]c34)cc2C2(COC(N)=N2)C12COC2 (stereo not drawn) [RP 175]	1550 nM	3230 nM	–	–
CC1(C)Oc2ccc(-c3ccc4[nH]ncc4c3)cc2C2(COC(N)=N2)C12COC2 (stereo not drawn) [RP 177]	2120 nM	–	1500 nM	–
COc1cnc(C(=O)Nc2ccc3c(c2)[C@@]2(COC(N)=N2)C2(CC2)C(C)(C)O3)cn1 [Example 230, N-[(4′R)-2″-amino-2′,2′-dimethyldispiro[cyclopropane-1,3′-chromene-4′,4″-[1,3]oxazol]-6′-yl]-5-methoxypyrazine-2-carboxamide]	–	–	–	melting point: 191 °C
CC1(C)Oc2ccc(-c3c(F)ccc(F)c3F)cc2C2(COC(N)=N2)C12COC2 (stereo not drawn) [RP 185]	1270 nM	2050 nM	760 nM	–

SMILES	IC50 (BACE1 [1])	IC50 (BACE1 [2])	IC50 (BACE1 [3])	further results
NC1=NC2(CO1)c1cc(-c3cncc4ccccc34)ccc1OC1(CCC1)C21COC1 (stereo not drawn) [RP 210]	4950 nM	–	–	IC50 (hERG potassium channel): 3700 nM
NC1=NC2(CO1)c1cc(C3=CCOCC3)ccc1OCC21COC1 (stereo not drawn) [RP 24]	32900 nM	37900 nM	–	–
CC1(C)Oc2ccc(-c3cncc(Cl)n3)cc2C2(COC(N)=N2)C12COC2 (stereo not drawn) [RP 150]	759 nM	–	450 nM	–
CC1(C)Oc2ccc(NC(=O)c3ccc(Cl)cn3)cc2[C@@]2(COC(N)=N2)C12CC2 [Example 221]	–	81.8 nM	0.16 nM	Ki (BACE1 [2]; read-out: Test Example 1 BACE1 MCA Ki, MCA substrate): 37.8 nM; Test Example 4 Aβ42 reduction (%) (Aβ42; 1 mg/kg, 3 hours): 24%; Test Example 4 Aβ42 reduction (%) (Aβ42; 3 mg/kg, 3 hours): 42%
Cc1cn2ccc(-c3ccc4c(c3)C3(COC(N)=N3)C3(COC3)C3(CCC3)O4)cc2n1 (stereo not drawn) [RP 66]	135000 nM	–	–	IC50 (hERG potassium channel): > 10000 nM
CC1(C)Oc2ccc(NC(=O)c3cnc(C(F)F)cn3)cc2[C@@]2(COC(N)=N2)C12CC2.Cl	–	–	–	melting point: 254 °C
CC1(C)Oc2ccc(-c3ccc4[nH]ccc4c3)cc2C2(COC(N)=N2)C12COC2 (stereo not drawn) [RP 174, 6′-(1H-indol-5-yl)-2′,2′-dimethyldispiro[1,3-oxazole-4,4′-chromene-3′,3″-oxetan]-2-amine]	2180 nM	3350 nM	3400 nM	–
CC#Cc1cncc(-c2ccc3c(c2)C2(COC(N)=N2)C2(COC2)CO3)n1 (stereo not drawn) [RP 22]	2600 nM	–	2900 nM	–
CC1(C)Oc2ccc(-c3cccc4cnccc34)cc2C2(COC(N)=N2)C12COC2 (stereo not drawn) [RP 180]	1770 nM	2030 nM	490 nM	–
CC1(C)Oc2ccc(-c3cccc4cccnc34)cc2C2(COC(N)=N2)C12COC2 (stereo not drawn) [RP 179]	2060 nM	3240 nM	1400 nM	–
CCC1CC=C(c2ccc3c(c2)C2(COC(N)=N2)C2(COC2)C(C)(C)O3)CC1 (stereo not drawn) [RP 172]	2160 nM	2240 nM	–	–
NC1=NC2(CO1)c1cc(-c3cc(Cl)cnc3F)ccc1OCC21CC1 (stereo not drawn) [RP 104]	1130 nM	–	–	IC50 (hERG potassium channel): 3250 nM
CC1(C)Oc2ccc(-c3ccc(OC(F)F)cc3)cc2C2(COC(N)=N2)C12COC2 (stereo not drawn) [RP 187]	1920 nM	3160 nM	–	–
CC1(C)Oc2ccc(-c3cccc(OC(F)(F)F)c3)cc2C2(COC(N)=N2)C12COC2 (stereo not drawn) [RP 183]	880 nM	1080 nM	–	–
COc1cnc(C(=O)Nc2ccc3c(c2)[C@@]2(COC(N)=N2)C2(COC2)C(C)(C)O3)cn1 [Example 220]	–	–	–	IC50 (hERG potassium channel): > 10000 nM; Test Example 4 Aβ42 reduction (%) (Aβ42; 3 mg/kg, 1.5 hours): 21%; Test Example 4 Aβ42 reduction (%) (Aβ42; 10 mg/kg, 1.5 hours): 27%
CC1(C)Oc2ccc(NC(=O)c3ccc(Cl)cn3)cc2[C@@]2(COC(N)=N2)C12COC2 (hydrate or solvate) [Example 218, N-[(4S)-2-amino-2′,2′-dimethyldispiro[1,3-oxazole-4,4′-chromene-3′,3″-oxetan]-6′-yl]-5-chloropyridine-2-carboxamide]	–	–	–	melting point: 165 °C
CC1(C)Oc2ccc(-c3ccc4c(c3)OCO4)cc2C2(COC(N)=N2)C12COC2 (stereo not drawn) [RP 182]	1450 nM	–	2500 nM	–
CC1(C)Oc2ccc(-c3ccc4nonc4c3)cc2C2(COC(N)=N2)C12COC2 (stereo not drawn) [RP 178]	747 nM	1150 nM	810 nM	–
CC#Cc1cc(-c2ccc3c(c2)C2(COC(N)=N2)C2(COC2)CO3)ncn1 (stereo not drawn) [RP 21]	1350 nM	–	410 nM	–

Source: patent US8975415B2, “Chromane compounds” (CoMentis, Inc., priority 2012, dated 2015)
